According to US20210298297A1, “MOSQUITO ATTRACTANTS” (Wageningen Universiteit, priority 2018, published 2021):

Assays:
[1] = tested on: Anopheles coluzzii; test: Dual-port olfactometer preference test of IAC and IAC blends; type: in vivo; details: for behavioural response on supplementing parasite-free odour with the IAC alone: individual IAC, at least two concentrations, with parasite-free odour (socks) vs parasite-free odour alone
Procedure: Six IAC (heptanal, octanal, nonanal, (E)-2-octenal, (E)-2-decenal and 2-octanone) were tested in a background of odour from the worn nylon socks of twelve parasite-free children (18S qPCR confirmed). Each sock pair was cut into twelve strips after removing the foot part, then 12 bundles were made, each containing a strip from each individual. Bundles were stored at −20° C. until, and between, experiments. IAC were positioned downwind and separated from sock bundles by a metal grid, ensuring no contact. Parasite-free odour (bundles) was tested with or without individual IAC (in 10 μL hexane on filter paper) and against the same but with hexane alone.
Next, we verified whether the IAC could improve a mosquito lure for monitoring or mass trapping of Anopheles. Heptanal, the most promising candidate from the above experiment, was tested as well as two blends: Plas 5 contained the IAC that were associated with parasitological positivity (nonanal, heptanal, octanal, (E)-2-decenal and (E)-2-octenal), and Plas 6 additionally contained the gametocyte-associated 2-octanone (FIG. 3). Each of Plas 5 and Plas 6 were made up in hexane by weighing the appropriate amounts of constituent compounds into a volumetric flask. […] Plas 5 and Plas 6 were tested with the synthetic lure MB5^36 at four concentrations, each decreasing by a factor of 10 from the 100% concentration by serial dilution.
MB5 was presented on nylon strips as described in Menger et al. (2014)^36 (except the five compounds were incubated onto a single 5×26.5 cm nylon strip instead of five narrower strips). 10 μl of the Plas5 or Plas6 blend at 100% or serial dilution was pipetted onto a filter paper and added in the same olfactometer trap.
A triple chamber dual-port olfactometer^59 was used to test the preference of 30 five- to eight-day-old female, non blood-fed Anopheles coluzzii (Suokoko strain^21, rearing procedures as published previously^21) for parasite free odour or MB5, supplemented with IAC or IAC blends, against background odour alone (parasite-free odour or MB5). Mosquitoes were maintained in a release cage prior to testing (for 16-22 hours). Experiments took place during the last four hours of the scotophase under near-dark conditions (<1 lux). Mosquitoes were allowed to fly for 15 minutes, then those that had entered the traps with test/control odours were counted. Each IAC/concentration combination was tested eight-nine times on different days, and each Plas concentration 10-11 times on different days, rotating treatments between the left and right port of the olfactometer. Climatic data (R.H., temperature and air pressure) were recorded in the flight chambers and in the surrounding room.
Generalized linear models (GLMs) were used to test the effect of odours (individual IAC/heptanal/Plas blends) on relative attractiveness (the proportion of mosquitoes selecting the test odour). GLMs were run as described above (statistical analysis, attractiveness of ‘infected odour’ (socks) by cage assays), testing parameters associated with the set-up as additional factors or covariates in the model, and retaining when significant (P<0.05, F-test). Sets of compounds were run in separate models. SPSS® was used for the analyses.

[2] = tested on: Anopheles coluzzii antennae; test: Gas chromatography-electroantennography (GC-EAG) of pooled odour samples; details: analytes in pooled foot odour extracts; >3 responses of 6/7 repetitions = EAG-active
Procedure: Porapak filters were eluted using re-distilled diethyl ether (750 μL), and, to approximate an “average” odour per category, extracts were pooled according to the individual's parasitological status: (1) Plasmodium infection, no gametocytes (2) high-density P. falciparum gametocytes (3) parasite-free individuals, (4) Plasmodium infection, sub-microscopic P. falciparum gametocytes. Aliquots (400 μL) of extracts were mixed, then concentrated (to 60 μL) under a stream of nitrogen (charcoal-filtered). Glassware, charcoal filters and PTFE tubing were cleaned as before.
GC-EAG was conducted during the scotophase, using four- to eight- day-old, unfed female Anopheles coluzzii (N′gousso strain^56). Adults were maintained at 70% RH, with a 12 h light/dark cycle (scotophase 09:00-21:00) and access to 50% glucose solution. The order of testing blends was determined by a 5×5 Latin square (including control blend). The mosquito head was dissected, and the palps, proboscis, and half of the terminal (13th) antennal flagellomere cut off. The indifferent electrode was inserted into the back of the head and the antennal tips guided into the recording electrode to complete the circuit (FIG. 3). Electrodes were hand-pulled glass tips inserted over silver wire (diameter 0.37 mm; Harvard Apparatus, Edenbridge, UK) and filled with Ringers' solution^15. […] The eluate was split to the FID detector and EAG interface at a ratio of 1:1. At the EAG interface, the eluate passed from the heated splitter column to a stream of charcoal filtered, humidified air (flow rate 400 mL/min). This airflow was directed over the antenna at a distance of 5 mm. The signal was amplified ×10,000 by the Intelligent Data Acquisition Controller-4, and signals were analysed using EAD 2000 software (both Syntech®, Hilversum, The Netherlands). Responses were signified by a depolarisation of sufficient amplitude. Peaks that elicited responses in more than 3, of the 6/7 total repetitions, were considered to be EAG-active.

Row | SMILES | behavioural response on supplementing parasite-free odour with the IAC alone [1] | antennal (EAG) response [2] | proportion of mosquitoes selecting the test odour (GLM, 95 CI) ([1]; 10 μL heptanal at 10^−8 g/mL added to parasite-free odour (socks) vs parasite-free odour alone) | effect on attractiveness of parasite-free odour ([1]; heptanal at 10^−7 g/mL added to parasite-free odour vs parasite-free odour alone) | attractiveness of MB5 supplemented with the compound relative to control MB5 ([1]; three concentrations, data not shown)
1 | CCCCC/C=C/C=O [(E)-2-octenal] | did not induce altered behavioural responses |  |  |  | 
2 | CCCCCCCC=O [octanal] | did not induce altered behavioural responses | elicit antennal response |  |  | 
3 | CCCCCCC=O [heptanal] |  | elicit antennal response | 0.60-0.84 | no effect | equally attractive
4 | CCCCCCCCC=O [nonanal] | did not induce altered behavioural responses | elicit antennal response |  |  | 
5 | CCCCCCC/C=C/C=O [(E)-2-decenal] | did not induce altered behavioural responses |  |  |  | 
6 | CCCCCCC(C)=O [2-octanone] | did not induce altered behavioural responses |  |  |  | 
